Patent US20230295166A1, “ATR INHIBITORS AND USES THEREOF” (ANTENGENE DISCOVERY LIMITED, priority 2020, published 2023)
pIC50: −log10 of the molar value.

Experiments:
ATR kinase = ATR kinase (Homo sapiens (Human), UniProt Q13535); test: ATR inhibition assay (mobility shift assay, phosphorylation of FAM-RAD17); assay type: biochemical; details: ATR kinase (Eurofins), substrate FAM-RAD17, mobility shift
Experimental: Assay 1: ATR Inhibition Assay
Detection of ATR kinase activity utilized the Mobility shift assay to measure the phosphorylation of the substrate protein FAM-RAD17 (GL, Cat. No. 514318, Lot. No. P19042-MJ524315). The assay was developed and conducted at Chempartner. All the test compounds were dissolved in 100% DMSO at concentration of 20 mM, then prepare compounds and conducted the assay as follows: • 1) Transfer 80 μl 20 mM compound to 40 μl of 100% DMSO in a 96-well plate. • 2) Serially dilute the compound by transferring 20 μl to 60 μl of 100% DMSO in the next well and so forth for a total of 10 concentrations. • 3) Add 100 μl of 100% DMSO to two empty wells for no compound control and no enzyme control in the same 96-well plate. Mark the plate as source plate. • 4) Transfer 40 μl of compound from source plate to a new 384-well plate as the intermediate plate. • 5) Transfer 60 nl compounds to assay plate by Echo. • 6) Add ATR kinase (Eurofins, Cat. No. 14-953, Lot. No. D14 JP007N) into Kinase base buffer (50 mM HEPES, pH 7.5; 0.0015% Brij-35; 0.01% Triton) to prepare 2× enzyme solution, then add 10 μl of 2× enzyme solution to each well of the 384-well assay plate, incubate at room temperature for 10 min. • 7) Add FAM-RAD17 and ATP (Sigma, Cat. No. A7699-1G, CAS No. 987-65-5) in the kinase base buffer to prepare 2×peptide solution, then add 10 μl to the assay plate. • 8) Incubate at 28° C. for specified period of time. Add 40 μl of stop buffer (100 mM HEPES, pH 7.5; 0.015% Brij-35; 0.2% Coating Reagent #3; 50 mM EDTA) to stop reaction. • 9) Collect data on Caliper. Convert conversion values to inhibition values.
Percent inhibition=(max−conversion)/(max−min)*100 wherein “max” stands for DMSO control; “min” stands for low control.
Fit the data in XLFit excel add-in version 5.4.0.8 to obtain IC50 values. Equation used is:
Y=Bottom+(Top−Bottom)/(1+(IC50/X)^HillSlope) wherein X means concentration in a format not transformed to logarithms.

LoVo (CCL-229) cells = test: Tumor cell anti-proliferation assay (CTG assay); assay type: cell-based; details: LoVo human colorectal cancer cells, 96 h, CellTiter-Glo
Procedure, shortened: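 Cells seeded and held 20–24 h, then exposed to 3-fold serial dilutions of compound (final DMSO 0.5%) for 96 h at 37 °C, 5% CO2. Viability measured by CellTiter-Glo luminescence; IC50 and GI50 from a 4-parameter logistic fit.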

Sequence of ATR kinase (Q13535 whole entry): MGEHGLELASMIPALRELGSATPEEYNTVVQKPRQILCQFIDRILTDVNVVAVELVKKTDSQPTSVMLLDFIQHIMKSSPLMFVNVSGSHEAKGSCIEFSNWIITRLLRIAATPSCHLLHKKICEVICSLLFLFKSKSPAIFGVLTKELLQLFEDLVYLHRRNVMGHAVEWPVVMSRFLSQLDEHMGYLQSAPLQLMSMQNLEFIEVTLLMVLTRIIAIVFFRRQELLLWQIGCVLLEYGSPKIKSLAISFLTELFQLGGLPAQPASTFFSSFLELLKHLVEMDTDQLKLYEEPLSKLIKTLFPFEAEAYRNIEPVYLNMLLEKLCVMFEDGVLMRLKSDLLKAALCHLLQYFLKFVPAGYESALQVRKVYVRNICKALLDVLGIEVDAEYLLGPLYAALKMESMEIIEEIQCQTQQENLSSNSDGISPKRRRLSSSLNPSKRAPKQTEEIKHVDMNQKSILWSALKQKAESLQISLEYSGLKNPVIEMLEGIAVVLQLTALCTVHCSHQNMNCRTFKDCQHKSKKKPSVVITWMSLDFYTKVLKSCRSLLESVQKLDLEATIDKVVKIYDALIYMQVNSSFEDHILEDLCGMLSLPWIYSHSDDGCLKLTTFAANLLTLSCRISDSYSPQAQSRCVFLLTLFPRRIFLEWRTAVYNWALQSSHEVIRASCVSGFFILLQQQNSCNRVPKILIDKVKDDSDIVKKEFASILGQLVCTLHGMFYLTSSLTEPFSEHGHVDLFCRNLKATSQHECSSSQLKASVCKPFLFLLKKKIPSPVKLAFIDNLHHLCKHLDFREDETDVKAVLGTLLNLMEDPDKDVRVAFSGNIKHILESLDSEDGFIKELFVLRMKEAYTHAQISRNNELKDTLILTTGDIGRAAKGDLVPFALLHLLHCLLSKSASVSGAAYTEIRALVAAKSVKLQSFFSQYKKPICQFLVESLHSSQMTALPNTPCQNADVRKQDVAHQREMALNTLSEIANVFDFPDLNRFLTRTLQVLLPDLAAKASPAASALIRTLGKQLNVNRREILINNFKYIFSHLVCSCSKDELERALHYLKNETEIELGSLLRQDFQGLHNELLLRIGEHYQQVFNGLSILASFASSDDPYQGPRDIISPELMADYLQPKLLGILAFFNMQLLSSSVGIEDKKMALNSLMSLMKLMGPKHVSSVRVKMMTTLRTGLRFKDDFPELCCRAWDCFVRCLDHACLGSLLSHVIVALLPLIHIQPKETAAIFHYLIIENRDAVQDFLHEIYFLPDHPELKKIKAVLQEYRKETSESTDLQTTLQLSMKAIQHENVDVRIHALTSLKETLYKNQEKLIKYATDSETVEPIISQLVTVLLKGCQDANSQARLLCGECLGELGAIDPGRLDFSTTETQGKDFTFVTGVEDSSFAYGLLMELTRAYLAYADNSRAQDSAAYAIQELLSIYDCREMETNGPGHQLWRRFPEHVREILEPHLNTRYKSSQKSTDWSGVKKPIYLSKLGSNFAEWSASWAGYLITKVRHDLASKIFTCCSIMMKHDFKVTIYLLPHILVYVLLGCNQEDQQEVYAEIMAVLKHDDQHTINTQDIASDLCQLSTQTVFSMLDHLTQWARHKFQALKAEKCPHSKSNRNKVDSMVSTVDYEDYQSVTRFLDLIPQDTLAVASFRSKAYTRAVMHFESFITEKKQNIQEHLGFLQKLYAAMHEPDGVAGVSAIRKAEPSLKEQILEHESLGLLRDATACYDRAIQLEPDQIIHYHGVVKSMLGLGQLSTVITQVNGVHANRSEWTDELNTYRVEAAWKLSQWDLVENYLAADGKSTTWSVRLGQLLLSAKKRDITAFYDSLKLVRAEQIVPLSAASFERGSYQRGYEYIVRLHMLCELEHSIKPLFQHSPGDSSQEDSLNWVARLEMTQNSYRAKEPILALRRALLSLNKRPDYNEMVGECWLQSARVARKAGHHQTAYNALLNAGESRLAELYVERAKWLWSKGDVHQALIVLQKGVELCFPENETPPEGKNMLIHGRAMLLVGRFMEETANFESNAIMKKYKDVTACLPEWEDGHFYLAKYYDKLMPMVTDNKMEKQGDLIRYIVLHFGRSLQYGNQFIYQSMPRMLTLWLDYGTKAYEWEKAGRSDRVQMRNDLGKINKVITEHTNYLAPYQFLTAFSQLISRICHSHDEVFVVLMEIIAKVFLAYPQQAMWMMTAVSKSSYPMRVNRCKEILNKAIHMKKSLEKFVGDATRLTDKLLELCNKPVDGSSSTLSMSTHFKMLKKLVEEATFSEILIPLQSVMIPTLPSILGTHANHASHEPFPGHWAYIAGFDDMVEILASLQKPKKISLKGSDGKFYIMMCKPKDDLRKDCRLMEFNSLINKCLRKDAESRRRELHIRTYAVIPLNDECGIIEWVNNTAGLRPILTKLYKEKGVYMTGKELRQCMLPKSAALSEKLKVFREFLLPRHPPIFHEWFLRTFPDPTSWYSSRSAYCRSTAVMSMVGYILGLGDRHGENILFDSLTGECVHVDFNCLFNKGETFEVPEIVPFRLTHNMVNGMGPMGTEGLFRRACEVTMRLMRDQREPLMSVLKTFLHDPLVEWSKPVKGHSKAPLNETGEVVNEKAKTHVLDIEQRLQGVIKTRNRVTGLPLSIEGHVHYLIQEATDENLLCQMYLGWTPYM
Sequence of ATR kinase (Q8WXE1 whole entry partner): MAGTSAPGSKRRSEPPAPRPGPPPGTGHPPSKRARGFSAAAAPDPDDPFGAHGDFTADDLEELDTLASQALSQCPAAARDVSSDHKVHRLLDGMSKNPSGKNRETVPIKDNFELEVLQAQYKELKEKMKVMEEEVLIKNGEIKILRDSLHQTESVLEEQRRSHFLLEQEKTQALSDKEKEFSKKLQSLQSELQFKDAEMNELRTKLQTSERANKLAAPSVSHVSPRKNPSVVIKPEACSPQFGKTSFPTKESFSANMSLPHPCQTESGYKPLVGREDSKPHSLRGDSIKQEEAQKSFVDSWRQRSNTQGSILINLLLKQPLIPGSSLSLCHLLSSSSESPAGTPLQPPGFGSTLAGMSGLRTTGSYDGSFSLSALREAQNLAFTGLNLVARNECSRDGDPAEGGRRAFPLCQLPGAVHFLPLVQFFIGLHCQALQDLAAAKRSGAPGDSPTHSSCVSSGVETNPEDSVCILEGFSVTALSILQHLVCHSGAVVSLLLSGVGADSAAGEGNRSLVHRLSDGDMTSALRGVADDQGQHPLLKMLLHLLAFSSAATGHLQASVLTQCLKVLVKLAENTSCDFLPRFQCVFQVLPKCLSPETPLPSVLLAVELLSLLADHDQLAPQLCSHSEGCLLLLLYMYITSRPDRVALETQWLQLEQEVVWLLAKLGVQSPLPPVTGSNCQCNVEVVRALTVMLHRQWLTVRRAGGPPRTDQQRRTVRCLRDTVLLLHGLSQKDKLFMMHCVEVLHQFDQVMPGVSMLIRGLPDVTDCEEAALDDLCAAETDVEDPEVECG

| pIC50 (ATR kinase) | pIC50 (LoVo (CCL-229) cells) | Compound |
| --- | --- | --- |
| > 7.00 | 7.85 | C[C@@H]1COCCN1c1cc(-c2ccnn2C)c2snc(-c3ccn[nH]3)c2n1 [Example 29, (3R)-3-methyl-4-[7-(1-methyl-1H-pyrazol-5-yl)-3-(1H-pyrazol-5-yl)-[1,2]thiazolo[4,5-b]pyridin-5-yl]morpholine] |
| > 7.00 | 7.75 | Cc1cc(-c2nsc3c(C4(C#N)CC4)cc(N4CCOC[C@H]4C)nc23)[nH]n1 [Example 52, (R)-1-(3-(3-methyl-1H-pyrazol-5-yl)-5-(3-methylmorpholino)isothiazolo [4,5-b]pyridin-7-yl)cyclopropane-1-carbonitrile] |
